Results as given in patent publication US4710571A, “1H-imidazol-1-ethanol esters” (Gist-Brocades N.V., priority 1983, dated 1987).
Where a name gives a salt, the structure may show the parent alone.

Columns and labels:
ear sebaceous glands = assay: lipid (sebum) synthesis in ear sebaceous glands of androgen-stimulated female hamsters, ear biopsies incubated with radioactive acetate; type: in vivo, hamster; conditions: for inhibition in vivo at 500 µg/day: dose 500 μg per day; for inhibition in vivo at 500 µg/day / lipid synthesis inhibition / inhibition in vivo at 100 µg/day: androgen-stimulated female hamsters, percentages may rise over 100%; for lipid synthesis inhibition / inhibition in vivo at 100 µg/day: dose 100 μg per day
Protocol: The sebum synthesis inhibiting activities of 1H-imidazole-1-ethanol and the esters of formula I were established in a number of animal species and particularly in the hamster much research has been carried out. Androgens administered to female hamsters stimulate the sebum synthesis in ear sebaceous glands and the extent of sebum synthesis is determined by incubating ear biopsies with radioactive acetate (Hall D. W. R. et al, Hormonal Control of Hamster Ear Sebaceous Gland Lipogenesis, Arch. Dermatol Res., 275, 1 (1983)). The test was based on the conversion of the added radioactive acetate into lipids which after extraction with hexane can be determined in a scintillation counter. In the following Table, the inhibition percentages of a number of substances are shown and the percentages may rise over 100%. A very strong activity of a compound will inhibit both the activity stimulated by androgen and the basal sebum synthesis activity of the sebaceous gland.

hormonal activity = hormonal activity in animal tests; type: in vivo
skin irritation = type: in vivo, human; conditions: in humans
[1] = system: lipid synthesis in other organs; assay: lipid synthesis inhibition in organs other than the sebaceous glands; type: in vivo; conditions: animal tests
sebum secretion = assay: inhibition of sebum secretion in humans; type: in vivo, human
penetration of the skin = type: in vivo, human; conditions: in humans

Row | SMILES | inhibition in vivo at 100 µg/day (ear sebaceous glands; Mesocricetus auratus) | further results
1 | CC(C)(C)c1ccc(C(=O)OCCn2ccnc2)cc1 [4-tBuC6 H4, HCl] | – | inhibition in vivo at 500 µg/day (ear sebaceous glands; Mesocricetus auratus): 81%
2 | O=C(O)/C=C\C(=O)O.O=C(OCCn1ccnc1)c1ccc(Cl)cc1Cl [2,4-Cl2 C6 H3, maleate, 2-(1H-imidazol-1-yl)-ethyl 2,4-dichlorobenzoate (Z)-2-butenedioate(1:1)] | – | lipid synthesis inhibition (ear sebaceous glands): 37%
3 | CC1=C(/C=C/C(C)=C/C=C/C(C)=C/C(=O)OCCn2ccnc2)C(C)(C)CCC1 [retinoic acid, 2-(1H-imidazol-1-yl)-ethyl retinoate ethanedioate (2:1)] | 39% | –
4 | CC(C)(C)C(=O)OCCn1ccnc1 [(CH3)3 --C--] | 72% | –
5 | Cc1ccc(C(=O)OCCn2ccnc2)cc1 [4-CH3 C6 H4, maleate] | – | inhibition in vivo at 500 µg/day (ear sebaceous glands; Mesocricetus auratus): 92%
6 | CCCCCCCCCCCCCCCC(=O)OCCn1ccnc1 [CH3 (CH2)14 --, 2-(1H-imidazol-1-yl)-ethyl hexadecanoate ethanedioate (1:1)] | 44% | –
7 | CC(C)(C)c1ccc(C(=O)OCCn2ccnc2)cc1 [4-tBuC6 H4, base] | 67% | –
8 | O=C(OCCn1ccnc1)c1ccc(C(F)(F)F)cc1 [4-CF3 C6 H4] | – | inhibition in vivo at 500 µg/day (ear sebaceous glands; Mesocricetus auratus): 70%
9 | CC(=O)OCCn1ccnc1 [CH3] | 82% | –
10 | O=C(OCCn1ccnc1)c1cccs1 [2-thiophene, 2-(1H-imidazol-1-yl)-ethyl 2-thiophenecarboxylate] | 89% | –
11 | O=C(OCCn1ccnc1)c1ccc(Cl)cc1Cl [2,4-Cl2 C6 H3, base] | – | lipid synthesis inhibition (ear sebaceous glands): 60%
12 | O=C(CCc1ccccc1)OCCn1ccnc1 [C6 H5 (CH2)2] | 76% | –
13 | O=C(C=Cc1ccccc1)OCCn1ccnc1 [C6 H5 --CH=CH] | 59% | –
14 | CCCC(=O)OCCn1ccnc1 [(CH2)2 CH3] | 106% | –
15 | OCCn1ccnc1 [imidazolethanol, 1H-imidazole-1-ethanol] | – | inhibition in vivo at 1000 µg/day (ear sebaceous glands; Mesocricetus auratus, read-out: lipid synthesis inhibition): 37%
16 | O=C(OCCn1ccnc1)c1ccccc1 [C6 H5, 2-(1H-imidazol-1-yl)-ethyl benzoate] | 82% | hormonal activity (hormonal activity): no lipid synthesis inhibition in other organs or hormonal activity were found; irritation (skin irritation): little irriation; lipid synthesis inhibition in other organs [1]: no lipid synthesis inhibition in other organs; inhibition of the sebum secretion (sebum secretion): good inhibition of the sebum secretion; penetration of the skin (penetration of the skin): good penetration of the skin
17 | O=C(OCCn1ccnc1)c1ccncc1 [4-pyridyl] | 44% | –
18 | Cc1ccc(C(=O)OCCn2ccnc2)cc1 [4-CH3 C6 H4, base] | 91% | –
19 | O=C(OCCn1ccnc1)c1ccc(Cl)cc1 [4-ClC6 H4] | – | inhibition in vivo at 500 µg/day (ear sebaceous glands; Mesocricetus auratus): 49%
20 | COc1ccc(C(=O)OCCn2ccnc2)cc1 [4-CH3 OC6 H4] | 83% | –
